Columns and labels:
Assay type in all cases: in vivo
[1] = test system: Puccinia recondita f. sp. tritici; assay: Test B: wheat leaf rust, preventive spray on wheat seedlings; conditions: 100 = 100% disease control, 0 = no control relative to controls; for Test B disease control rating (wheat leaf rust) / pest or weed control at 50 ppm: 50 ppm; for pest or weed control at 50 ppm / pest or weed control at 10 ppm: read-out: Test B disease control rating (wheat leaf rust)
Summary of the method: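 Compounds in acetone/water (50/50) with 250 ppm PEG400, sprayed to run-off on wheat seedlings at stated ppm; inoculated next day with P. recondita spores. Held 24 h saturated at 20° C., then 7 days in growth chamber at 20° C.; rating 0–100 = % disease control vs controls.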

[2] = test system: Blumeria graminis f. sp. tritici; assay: Test C: wheat powdery mildew, preventive spray on wheat seedlings; conditions: rated after 8 days, 100 = 100% disease control, 0 = no control; for Test C disease control rating (wheat powdery mildew) / pest or weed control at 50 ppm: 50 ppm; for pest or weed control at 50 ppm / pest or weed control at 10 ppm: Blumeria graminis, 192 h, read-out: Test C disease control rating (wheat powdery mildew)
Summary of the method: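 Compound dissolved in acetone (3% of final volume), then suspended in 50/50 acetone/water with 250 ppm PEG400 and sprayed to run-off on wheat seedlings. Inoculated next day with B. graminis f. sp. tritici spore dust, kept 8 days at 20° C; visual rating, 100 = full control, 0 = none, relative to controls.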

Alternaria solani = assay: Test F: tomato early blight, preventive spray on tomato seedlings; conditions: 100 = 100% disease control, 0 = no control; for Test F disease control rating (tomato early blight) / pest or weed control at 50 ppm: 50 ppm; for pest or weed control at 50 ppm / pest or weed control at 10 ppm: Alternaria solani, read-out: Test F disease control rating (tomato early blight)
Summary of the method: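 Compounds in acetone/water (50/50) with 250 ppm PEG400, dosed in ppm, sprayed to run-off on tomato seedlings; next day inoculated with A. solani spores. Held 48 h saturated at 27° C, then 3 days at 20° C; visual rating 0–100% disease control relative to controls.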

Botrytis cinerea = assay: Test E: tomato Botrytis, preventive spray on tomato seedlings; conditions: 100 = 100% disease control, 0 = no control; for Test E disease control rating (tomato Botrytis) / pest or weed control at 50 ppm: 50 ppm; for pest or weed control at 50 ppm / pest or weed control at 10 ppm: Botrytis cinerea, read-out: Test E disease control rating (tomato Botrytis)
Summary of the method: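 Tomato seedlings sprayed to run-off with compound (ppm) in acetone/water with 250 ppm PEG400, then inoculated next day with B. cinerea spores. Held 48 h at 20 °C in saturated atmosphere, then 3 days at 24 °C. Visual rating 0–100% disease control relative to untreated controls.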

Phakopsora pachyrhizi = assay: Test D: Asian soybean rust, preventive spray on soybean seedlings; conditions: 100 = 100% disease control, 0 = no control; for Test D disease control rating (Asian soybean rust) / pest or weed control at 50 ppm: 50 ppm; for pest or weed control at 50 ppm / pest or weed control at 10 ppm: Phakopsora pachyrhizi, read-out: Test D disease control rating (Asian soybean rust)
Summary of the method: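 Soybean seedlings sprayed to run-off with compound suspension (ppm, in 50/50 acetone/water with 250 ppm PEG400), inoculated next day with P. pachyrhizi spores, held 24 h saturated at 22°C then 8 days at 22°C. Visual rating 0-100% disease control relative to controls.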

Septoria tritici = assay: Test A: wheat leaf blotch, preventive spray on wheat seedlings; conditions: 100 = 100% disease control, 0 = no control relative to controls; for Test A disease control rating (wheat leaf blotch) / pest or weed control at 50 ppm: 50 ppm; for pest or weed control at 50 ppm / pest or weed control at 10 ppm: Zymoseptoria tritici, read-out: Test A disease control rating (wheat leaf blotch)
Summary of the method: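 Compounds were suspended in acetone/water (50/50) with 250 ppm PEG400 and sprayed to run-off on wheat seedlings. The next day the seedlings were inoculated with Septoria tritici spores, held 48 h at 24 °C in saturated humidity, then 17 days at 20 °C. Disease control was rated 0–100 relative to controls.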

Structure (SMILES) | Test B disease control rating (wheat leaf rust) [1] [%] | Test C disease control rating (wheat powdery mildew) [2] [%] | Test F disease control rating (tomato early blight) (Alternaria solani) [%] | Test E disease control rating (tomato Botrytis) (Botrytis cinerea) [%] | Test D disease control rating (Asian soybean rust) (Phakopsora pachyrhizi) [%] | Test A disease control rating (wheat leaf blotch) (Septoria tritici) [%] | pest or weed control at 50 ppm [1] [%] | pest or weed control at 50 ppm [2] [%] | pest or weed control at 50 ppm (Alternaria solani) [%] | pest or weed control at 50 ppm (Botrytis cinerea) [%] | pest or weed control at 50 ppm (Phakopsora pachyrhizi) [%] | pest or weed control at 50 ppm (Septoria tritici) [%] | pest or weed control at 10 ppm [1] [%] | pest or weed control at 10 ppm [2] [%] | pest or weed control at 10 ppm (Alternaria solani) [%] | pest or weed control at 10 ppm (Botrytis cinerea) [%] | pest or weed control at 10 ppm (Phakopsora pachyrhizi) [%] | pest or weed control at 10 ppm (Septoria tritici) [%]
Cc1cccc([N+](=O)[O-])c1Nc1c(-c2c(F)cc(F)cc2Br)c(C)nn1C [Compound 169] | 100 | 100 | 0 | 98 | 0 | 100 |  |  |  |  |  |  |  |  |  |  |  | 
Cc1nn(C)c(Nc2c(F)cc(Cl)cc2[N+](=O)[O-])c1-c1ccc(F)cc1Cl [Compound 121, N-(4-chloro-2-fluoro-6-nitrophenyl)-4-(2-chloro-4-fluorophenyl)-1,3-dimethyl-1H-pyrazol-5-amine] |  |  |  |  |  |  | 100 | 100 | 100 | 100 | 99 | 100 |  |  |  |  |  | 
Cc1nn(C)c(Nc2c(Cl)cc(F)cc2[N+](=O)[O-])c1-c1c(F)cccc1F [Compound 76] | 99 | 95 | 0 | 87 | 25 | 100 |  |  |  |  |  |  |  |  |  |  |  | 
Cc1nn(C)c(Nc2ccccc2[N+](=O)[O-])c1-c1ccc(F)cc1Cl [Compound 126] | 85 | 96 | 68 | 100 | 0 | 98 |  |  |  |  |  |  |  |  |  |  |  | 
Cc1nn(C)c(Nc2ccc(Cl)cc2[N+](=O)[O-])c1-c1c(F)cccc1Cl [Compound 22] | 93 | 97 | 64 | 99 | 0 | 100 |  |  |  |  |  |  |  |  |  |  |  | 
CCc1nn(C)c(Nc2c(F)cccc2[N+](=O)[O-])c1-c1ccc(F)cc1F [Compound 46] | 98 | 99 | 81 | 99 | 0 | 100 |  |  |  |  |  |  |  |  |  |  |  | 
Cc1cc(F)c(Nc2c(-c3ccc(C#N)cc3Cl)c(C)nn2C)c([N+](=O)[O-])c1 [Compound 127, 3-chloro-4-[5-[(2-fluoro-4-methyl-6-nitrophenyl)amino]-1,3-dimethyl-1H-pyrazol-4-yl]benzonitrile] |  |  |  |  |  |  | 99 | 92 | 100 | 100 | 96 | 100 |  |  |  |  |  | 
Cc1nn(C)c(Nc2ccc(F)cc2[N+](=O)[O-])c1-c1c(F)cccc1Cl [Compound 44] | 99 | 98 | 46 | 95 | 0 | 100 |  |  |  |  |  |  |  |  |  |  |  | 
COc1ccc(-c2c(C)nn(C)c2Nc2c(F)cc(F)cc2[N+](=O)[O-])c(Cl)c1 [Compound 64] | 100 | 98 | 99 | 98 | 97 | 100 |  |  |  |  |  |  |  |  |  |  |  | 
Cc1cc(F)c(Nc2c(-c3ccc(F)cc3Cl)c(C)nn2C)c([N+](=O)[O-])c1 [Compound 93, 4-(2-chloro-4-fluorophenyl)-N-(2-fluoro-4-methyl-6-nitrophenyl)-1,3-dimethyl-1H-pyrazol-5-amine] |  |  |  |  |  |  | 100 | 99 | 99 | 100 | 100 | 100 | 100 | 97 | 99 | 99 | 87 | 99
COc1ccc(Nc2c(-c3c(F)cc(C#N)cc3F)c(C)nn2C)c([N+](=O)[O-])c1 [Compound 150] | 100 | 98 | 99 | 100 | 13 | 100 |  |  |  |  |  |  |  |  |  |  |  | 
Cc1nn(C)c(Nc2c(F)cc(Cl)cc2[N+](=O)[O-])c1-c1ccc(F)cc1Br [Compound 131] | 100 | 99 | 100 | 99 | 80 | 100 |  |  |  |  |  |  |  |  |  |  |  | 
Cc1nn(C)c(Nc2ccc(Br)cc2[N+](=O)[O-])c1-c1ccc(F)cc1Cl [Compound 91] | 88 | 84 | 26 | 99 | 0 | 99 |  |  |  |  |  |  |  |  |  |  |  | 
Cc1nn(C)c(Nc2c(F)cccc2[N+](=O)[O-])c1-c1ccc(F)cc1Br [Compound 60, 4-(2-bromo-4-fluorophenyl)-N-(2-fluoro-6-nitrophenyl)-1,3-dimethyl-1H-pyrazol-5-amine] |  |  |  |  |  |  | 100 | 100 | 99 | 99 | 97 | 100 | 100 | 85 | 75 | 99 | 0 | 99
